Experimental data: publication PMC3792137, “NMK-TD-100, a Novel Microtubule Modulating Agent, Blocks Mitosis and Induces Apoptosis in HeLa Cells by Binding to Tubulin” (PLoS ONE, 2013)

Biological target: T1, tubulin (alpha/beta heterodimer)
T1 construct: tubulin purified from goat brain; with alpha-tubulin/beta-tubulin heterodimer
Test: Ligand fluorescence enhancement titration (Scatchard, Job plot […]); tryptophan quenching gave Kd […]; polymerization IC50 […]
Format: binding, Capra hircus

## COc1cc(-c2nnc(-c3c[nH]c4ccccc34)s2)cc(OC)c1OC [NMK-TD-100]
  Kd: 1260 ± 320 nM
